Drawing on the METLIN SMRT retention time set (Domingo-Almenara et al. 2019), this text covers RP-LC retention time for 79 compounds.

Molecules are shown by their SMILES.

This data set in a line: gradient 5% acetonitrile 3 min, to 50% in 2 min, to 85% in 15 min, held 3 min, 100 µL/min. The conditions noted are these: column: Zorbax Extend-C18 2.1 x 50 mm; eluents: water / acetonitrile, 0.1% formic acid. In short, it runs like this:
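Mixtures of ~100 pure standards were chromatographed on a Zorbax Extend-C18 column (2.1 × 50 mm, 1.8 μm) at 100 μL/min using water and acetonitrile, each with 0.1% formic acid. Detection used a quadrupole time-of-flight mass spectrometer in positive and negative ionization mode, and data collection spanned 3 months. Retention time was obtained from adduct peaks picked computationally and each checked manually.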
Compound `O=C(Cn1nc2c3cc(F)ccc3ncn2c1=O)Nc1ccccc1F` displayed an RP-LC retention time of 656 s.
In the case of `COc1cc([C@H]2Oc3cc([C@@H]4Oc5cc(O)cc(O)c5C(=O)[C@@H]4O)ccc3O[C@@H]2CO)ccc1O` it was 754 s; in that of `COc1cccc(NC(=O)C2CCN(S(=O)(=O)c3ccc4c(c3)CCCC(=O)N4)CC2)c1`, 755 s.
Turning to `Cc1noc(C)c1-c1ccc(S(=O)(=O)Nc2ccc(F)cc2)cc1`, the RP-LC retention time turned out to be 904 s.
Turning to `COc1cc(=O)n2c(c1C(=O)Nc1ccc(Br)cc1)CCCC2`, the RP-LC retention time was 760 s.
In the case of `Cc1ccccc1OCC(=O)NCC1CC(=O)N(c2ccccc2)C1` (centres undefined) it was 741 s; in that of `COc1ccc(NC(=O)N2CCC(C(=O)NCc3csc(-c4ccccc4)n3)CC2)c(OC)c1`, 777 s.
In the case of `CC(C)NC[C@H](O)COc1cccc2ccccc12` it was 720 s; in that of `O=S(=O)(NCc1cccnc1-c1ccc(F)cc1)c1ccc(Cl)cc1`, 799 s.
On to `COc1ccc(OC)c(CNC(=O)C2CCCN(c3nnc4ccc(Cl)cn34)C2)c1` (centres undefined), for which the RP-LC retention time was 737 s.
Then `O=C(CCC1CCCN(c2cc(NC3CC3)ncn2)C1)NCc1ccc(F)cc1` (centres undefined), with 676 s; and `O=C(NCCc1ccncc1)C1CN(C(=O)COc2ccccc2F)C1`, with 544 s.
With `COc1cccc(-c2c(C(=O)O)nnn2Cc2ccccc2F)c1`, the RP-LC retention time was determined as 776 s.
In the case of `COc1ccc(-c2nnc(COc3ccc(NS(C)(=O)=O)cc3)o2)cc1` it was 762 s; in that of `Cc1nc(-c2ccc(N3CCN(C(=O)c4nccc5ccccc45)CC3)nc2)sc1C`, 867 s.
The compound `COCCN1CC2(CCN(S(=O)(=O)c3ccc(C)cc3)CC2)C1c1ccccc1` (centres undefined) showed an RP-LC retention time of 693 s.
Then `CCn1cc(C)c(C(=O)O)c1CC(=O)NCCC(C)C`, with 749 s; and `COc1cc(NC(=O)Cn2c(N3CCc4ccccc4C3)nc(C)cc2=O)cc(OC)c1OC`, with 721 s.
In the case of `Cc1ccc(S(=O)(=O)Cc2nc(-c3ccc4c(c3)OCO4)no2)cc1` it was 951 s; in that of `CCC(C)NC(=O)c1ccc2ncnc(N3CCCCC3)c2c1` (centres undefined), 618 s.
Regarding `Cc1ccc(NS(=O)(=O)c2cc(-c3[nH]ncc3C(=O)N3CCOCC3)oc2C)cc1F`, the RP-LC retention time was 695 s.
`Cc1ccc(-n2c(N3CCCC(C(=O)NCCCc4ccccc4)C3)nc3ccsc3c2=O)cc1` (centres undefined): the RP-LC retention time worked out at 987 s.
With `O=C(NCCN1CCOCC1)C1CCN(S(=O)(=O)c2ccc(-c3noc(C4CC4)n3)cc2)CC1`, the RP-LC retention time came out at 642 s.
In the case of `O=S(=O)(c1cccc2c(Cl)cccc12)N1CCCNCC1`, the RP-LC retention time was determined as 716 s.
With `O=C(CCCN1CCC2(CC1)C(=O)N(Cc1cccc(F)c1)CN2c1ccccc1)c1ccc(F)cc1`, the RP-LC retention time was 981 s.
In the case of `CCCCOc1ccc(-c2ccc(=O)n(Cc3nc(-c4ccc(F)cc4)no3)n2)cc1` it was 1290 s; in that of `CN1CCOc2ccc(NC(=O)C3CCN(S(C)(=O)=O)CC3)cc2C1=O`, 590 s.
Then `Cc1ccc(NC(=O)Cn2c(N)nc(C)c(C)c2=O)c(C)c1`, with 608 s; and `COc1ccc(-c2noc(-c3ccc(=O)n(Cc4c(F)cccc4Cl)c3)n2)cc1`, with 1010 s.
Then `COCCCCC(=NOCCN)c1ccc(C(F)(F)F)cc1`, with 734 s; and `O=C(c1cnn2c1CCCC2)N1CCCC1`, with 614 s.
Regarding `Cc1ccc(CNc2c(-c3ccc(C(C)C)cc3)nc3ncccn23)cc1`, the RP-LC retention time was 907 s.
Compound `CC1=C(c2ccc(C)c(C)c2)S(=O)(=O)N=C1N1CCC(NC(=O)C2CCCO2)CC1` (centres undefined) returned an RP-LC retention time of 788 s.
`CN(C)c1ccc(CNC(=O)[C@@]23CCCC[C@H]2N(CCc2ccccc2)C(=O)CC3)cc1` displayed an RP-LC retention time of 634 s.
In the case of `Cc1ccc(Nc2c(-c3ccccc3)nc3ccc(C)cn23)cc1` it was 750 s; in that of `CNC(=O)C1=CCN(C(=O)NC2CCCC2)CC1`, 615 s; in that of `COc1ccc(OC)c(CNC(=O)c2ccc3c(c2)N(C)C(=O)c2ccccc2O3)c1`, 852 s.
In the case of `COc1ccc(C2(C(=O)N3CCCC(CO)CCNC(=O)CC3)CC2)cc1` (centres undefined), the RP-LC retention time came out at 622 s.
In the case of `O=C(Cn1ccc2ccn(Cc3cccnc3)c2c1=O)N1CCCC1` it was 578 s; in that of `Cc1cc(-c2c(C)sc(C)c2S(=O)(=O)N2CCN(c3ccccc3F)CC2)n[nH]1`, 971 s; in that of `COc1cc(C(=O)NCCOc2ccc(F)cc2)c([N+](=O)[O-])cc1OC`, 777 s.
`CC(C)C(=O)Nc1ccc(-n2cnc(C(=O)NCc3cc(F)cc(F)c3)c2)nc1`: the RP-LC retention time stood at 785 s.
Then `COc1ccc(Nc2c(C(=O)N3CCCCC3)cnc3nc(C)ccc23)cc1OC`, with 588 s; and `O=C(Cn1c(=O)c(=O)n(Cc2ccncc2)c2ncccc21)NC1CCCCCCC1`, with 646 s; and `O=C1CCCN1CCCN1C(=O)[C@H]2CN(Cc3cccc(Cl)c3)C[C@H]2C1=O`, with 628 s.
In the case of `O=C(NCC1CCOCC1)Nc1ccc(F)c(Cl)c1` it was 728 s; in that of `COc1ccc(-c2cc(N3CCN(C(=O)COc4ccc(Cl)cc4)CC3)ncn2)cc1`, 738 s; in that of `CCOCCCNC(=O)C1Cn2cccc2C(=O)N1C` (centres undefined), 597 s.
`O=C(CN1CCN(Cc2ccccc2)CC1)Nc1nc(-c2ccccc2)cs1` displayed an RP-LC retention time of 700 s.
Then `CC(C)n1cnc(S(=O)(=O)N2CCC(C(=O)Nc3ccc4c(c3)OCCO4)CC2)c1`, with 721 s; and `O=C(COc1ccc2c(c1)C(=O)CC2)NCCC1=CCCCC1`, with 827 s.
Then `O=C1CCCc2cc(S(=O)(=O)N3CCC(C(=O)NCCc4cccs4)CC3)ccc2N1`, with 717 s; and `COc1ccc(NC(=O)c2c(C)oc3nc(C)nc(N4CCOCC4)c23)c(OC)c1`, with 818 s.
Then `COc1cc(Cl)ccc1C(=O)N1C[C@@H]2C[C@H]1C[C@@H]2NC(=O)c1ccccc1`, with 939 s.
The compound `Cn1c(C2CCN(C(=O)NCc3ccc(F)cc3)CC2)cc(=O)n2nccc12` showed an RP-LC retention time of 644 s.
In the case of `Cc1cccc(Nc2ncccc2S(N)(=O)=O)c1` it was 811 s; in that of `COc1ccc(-c2cc3nn(CC(=O)N4CCC(C)CC4)c(=O)n3c(C)n2)cc1`, 894 s; in that of `O=C(c1noc2ccc(S(=O)(=O)N3CCCc4ccccc43)cc12)N1CCCC1`, 1060 s.
Turning to `CC(C)OCCCNC(=O)C1CCCCC(=O)N1` (centres undefined), the RP-LC retention time worked out at 617 s.
In the case of `Cc1ccc(NC(=O)Cn2nc3n(c2=O)CCCC3)cc1` it was 640 s; in that of `Cc1ccc(CNC(=O)C(=O)NCC(c2ccc3c(c2)CCCN3C)N2CCOCC2)cc1` (centres undefined), 610 s; in that of `Cc1cc(=O)n(CCc2ccccc2)c(N2CCCC2)n1`, 742 s.
In the case of `O=C(COc1cccc(C(F)(F)F)c1)NCCCn1nc(-c2ccncc2)ccc1=O` it was 601 s; in that of `CCCc1noc(-c2cccnc2N2CCCN(Cc3ccc(F)cc3)CC2)n1`, 729 s.
In the case of `CCn1cnc(S(=O)(=O)N2CCCC(C(=O)Nc3cccc(C)c3C)C2)c1` (centres undefined) it was 754 s; in that of `O=C(Nc1cccc(OC(F)(F)F)c1)C1(CCO)CCN(c2ncccn2)C1` (centres undefined), 661 s; in that of `Cc1ccc(NC(=O)N2C[C@H](c3nc(-c4ccncc4)no3)[C@@H](C)C2)cc1C`, 858 s.
Compound `CCN1CCN(C(=O)C(C)C2CCN(S(=O)(=O)c3ccc(Cl)s3)CC2)CC1` (centres undefined) showed an RP-LC retention time of 666 s.
Then `Cc1nc2cc3c(cc2n1CC(=O)NCc1ccc(F)cc1)OCCO3`, with 636 s.
Then `Cc1cc(C(F)F)n2nc(C(=O)Nc3ccc(C(C)C)cc3)nc2n1`, with 952 s; and `Cc1cc2nn(CC(=O)NCc3ccco3)c(=O)n2c(Nc2ccc(C)c(F)c2)n1`, with 923 s.
Then `COc1ccc(NC(=O)N2CCC3(CC2)N=C(c2cccc(F)c2)C(=O)N3)c(OC)c1`, with 786 s; and `CSc1cccc(NC(=O)CN2C(=O)C3CCCCN3c3ccc(S(=O)(=O)N(C)C)cc32)c1` (centres undefined), with 982 s; and `Cc1ccc(C(=O)N2CCCn3cc(-c4cccc(C#N)c4)nc32)cn1`, with 636 s.
Compound `Cc1cc(C)c(S(=O)(=O)N2CCC(C(=O)NCc3csc(-c4ccccc4)n3)CC2)cc1C` had an RP-LC retention time of 1050 s.
Then `Cc1noc(C)c1CCC(=O)N1CCN(c2ncnc3c2CCC3)CC1`, with 576 s; and `CC(C)NC(=O)c1ccc2c(c1)nc(CN1CCN(C(=O)NC(C)C)CC1)n2C`, with 576 s.
Then `COc1ccc(S(=O)(=O)N2C[C@@H]3C[C@H]2C[C@@H]3NC(=O)c2ccccc2)cc1Cl`, with 861 s; and `CCCCCn1c(=O)c2ccccc2n(Cc2nc(-c3ccccc3Cl)no2)c1=O`, with 1260 s.
